From patent US9868738B2, “Diazine-fused amidines as BACE inhibitors, compositions, and their use” (Merck Sharp & Dohme Corp., priority 2014, dated 2018)

How the values were obtained:
[1] = target: soluble human BACE1 catalytic domain (Homo sapiens (Human), UniProt P56817); assay: BACE-1 Ki Assay (BACE-1 HTRF FRET Assay); type: biochemical; details: Ki calculated from IC50 using the Cheng-Prusoff equation; QSY7-APPswe-Eu substrate 200 nM, pH 5.0
Procedure: In another embodiment, the compounds of the invention comprise the example compounds shown in the table below, or a tautomer thereof, or a pharmaceutically acceptable salt of said compound or said tautomer. Examples 2 to 42 were prepared using the method similar to Ex. 1. Example 44 to 51 were synthesized using the method similar to Ex. 43. BACE-1 values reported in this table were measured using BACE-1 Ki Assay (BACE-1 HTRF FRET Assay).
• Reagents: Na^+-Acetate pH 5.0; 1% Brij-35; Glycerol; Dimethyl Sulfoxide (DMSO); Recombinant human soluble BACE1 catalytic domain (>95% pure); APP Swedish mutant peptide substrate (QSY7-APP^swe-Eu): QSY7-EISEVNLDAEFC-Europium-amide.
A homogeneous time-resolved FRET assay can be used to determine IC50 values for inhibitors of the soluble human BACE1 catalytic domain. This assay monitors the increase of 620 nm fluorescence that resulted from BACE1 cleavage of an APPswedish APP^swe mutant peptide FRET substrate (QSY7-EISEVNLDAEFC-Europium-amide). This substrate contains an N-terminal QSY7 moiety that serves as a quencher of the C-terminal Europium fluorophore (620 nm Em). In the absence of enzyme activity, 620 nm fluorescence is low in the assay and increased linearly over 3 hours in the presence of uninhibited BACE1 enzyme. Inhibition of BACE1 cleavage of the QSY7-APP^swe-Eu substrate by inhibitors is manifested as a suppression of 620 nm fluorescence.
Varying concentrations of inhibitors at 3× the final desired concentration in a volume of 10 ul are preincubated with purified human BACE1 catalytic domain (3 nM in 10 μl) for 30 minutes at 30° C. in reaction buffer containing 20 mM Na-Acetate pH 5.0, 10% glycerol, 0.1% Brij-35 and 7.5% DSMO. Reactions are initiated by addition of 10 μl of 600 nM QSY7-APP^swe-Eu substrate (200 nM final) to give a final reaction volume of 30 μl in a 384 well Nunc HTRF plate. The reactions are incubated at 30° C. for 1.5 hours. The 620 nm fluorescence is then read on a Rubystar HTRF plate reader (BMG Labtechnologies) using a 50 millisecond delay followed by a 400 millisecond acquisition time window. Inhibitor IC50 values are derived from non-linear regression analysis of concentration response curves. Ki values are then calculated from IC50 values using the Cheng-Prusoff equation using a previously determined […] of 8 μM for the QSY7-APP^swe-Eu substrate at BACE1.

[2] = target: purified human autoBACE-2 (Homo sapiens (Human), UniProt Q9Y5Z0); assay: BACE-2 Assay (BACE-HTRF assay); type: biochemical; details: Ki calculated from IC50 using the Cheng-Prusoff equation; QSY7-EISEVNLDAEFC-Eu-amide substrate 200 nM, pH 5.0
purified human autoBACE-2, sequence (Q9Y5Z0 63-473 limits assumed): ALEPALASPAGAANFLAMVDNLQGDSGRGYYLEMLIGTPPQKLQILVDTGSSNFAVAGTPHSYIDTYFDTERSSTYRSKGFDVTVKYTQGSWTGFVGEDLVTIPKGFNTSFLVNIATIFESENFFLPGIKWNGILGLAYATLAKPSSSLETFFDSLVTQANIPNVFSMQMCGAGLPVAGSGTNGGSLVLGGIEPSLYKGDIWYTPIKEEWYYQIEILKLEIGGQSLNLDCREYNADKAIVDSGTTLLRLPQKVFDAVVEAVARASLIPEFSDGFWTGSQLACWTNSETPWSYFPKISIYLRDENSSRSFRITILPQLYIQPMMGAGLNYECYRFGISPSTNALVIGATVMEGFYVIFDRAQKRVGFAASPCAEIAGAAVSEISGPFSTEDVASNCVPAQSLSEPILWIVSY
Procedure: Inhibitor IC50s at purified human autoBACE-2 are determined in a time-resolved endpoint proteolysis assay that measures hydrolysis of the QSY7-EISEVNLDAEFC-Eu-amide FRET peptide substrate (BACE-HTRF assay). BACE-mediated hydrolysis of this peptide results in an increase in relative fluorescence (RFU) at 620 nm after excitation with 320 nm light. Inhibitor compounds, prepared at 3× the desired final concentration in 1×BACE assay buffer (20 mM sodium acetate pH 5.0, 10% glycerol, 0.1% Brij-35) supplemented with 7.5% DMSO are pre-incubated with an equal volume of autoBACE-2 enzyme diluted in 1×BACE assay buffer (final enzyme concentration 1 nM) in black 384-well NUNC plates for 30 minutes at 30° C. […] DMSO is present at […] final concentration in the assay. Following laser excitation of sample wells at 320 nm, the fluorescence signal at 620 nm is collected for 400 ms following a 50 μs delay on a RUBYstar HTRF plate reader (BMG Labtechnologies). Raw RFU data is normalized to maximum (1.0 nM BACE/DMSO) and minimum (no enzyme/DMSO) RFU values. IC50s are determined by nonlinear regression analysis (sigmoidal dose response, variable slope) of percent inhibition data with minimum and maximum values set to 0 and 100 percent respectively. Similar IC50s are obtained when using raw RFU data. The Ki values are calculated from the IC50 using the Cheng-Prusoff equation.

soluble human BACE1 catalytic domain, sequence (P56817 75-416): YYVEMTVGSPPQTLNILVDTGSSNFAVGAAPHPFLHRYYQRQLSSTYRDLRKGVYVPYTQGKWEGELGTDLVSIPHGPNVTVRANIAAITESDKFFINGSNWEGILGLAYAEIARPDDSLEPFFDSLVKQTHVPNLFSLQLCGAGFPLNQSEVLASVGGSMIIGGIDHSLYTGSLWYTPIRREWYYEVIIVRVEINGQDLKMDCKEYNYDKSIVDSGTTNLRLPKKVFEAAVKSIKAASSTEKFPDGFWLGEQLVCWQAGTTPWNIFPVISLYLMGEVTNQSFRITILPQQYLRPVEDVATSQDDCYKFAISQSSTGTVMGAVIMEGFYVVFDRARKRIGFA

| Ki [1] [nM] | Ki [2] [nM] | Compound |
| --- | --- | --- |
| 746 | 1180 | C[C@@]1(c2cc(-c3cccnc3)ccc2F)Cc2ncncc2C(=N)N1 [Example 10, (7S)-7-(2-fluoro-5-pyridin-3-ylphenyl)-7-methyl-7,8-dihydropyrido[4,3-d]pyrimidin-5(6H)-imine] |
| 81.5 | 39.8 | C[C@]1(c2cc(-c3cccc(C#N)c3)cs2)NC(=N)c2cncnc2C1(F)F [Example 18, 3-{5-[(7S)-8,8-difluoro-5-imino-7-methyl-5,6,7,8-tetrahydropyrido[4,3-d]pyrimidin-7-yl]thiophen-3-yl}benzonitrile] |
| 85 | 215 | C[C@@]1(c2cc(-c3cccc(-c4nnco4)c3)cs2)Cc2nc(C3CC3)ncc2C(=N)N1 [Example 34, (7S)-2-cyclopropyl-7-methyl-7-{4-[3-(1,3,4-oxadiazol-2-yl)phenyl]thiophen-2-yl}-7,8-dihydropyrido[4,3-d]pyrimidin-5(6H)-imine] |
| 246 | 128 | C[C@]1(c2sc(-c3cccc(C#N)c3)cc2Cl)NC(=N)c2cncnc2C1(F)F [Example 19, 3-{4-chloro-5-[(7S)-8,8-difluoro-5-imino-7-methyl-5,6,7,8-tetrahydropyrido[4,3-d]pyrimidin-7-yl]thiophen-2-yl}benzonitrile] |
| 52.1 | 28.3 | Cc1ncc2c(n1)C[C@@](C)(c1sc(-c3ccc(F)c(C#N)c3)cc1Cl)NC2=N [Example 27, 5-{4-chloro-5-[(7S)-5-imino-2,7-dimethyl-5,6,7,8-tetrahydropyrido[4,3-d]pyrimidin-7-yl]thiophen-2-yl}-2-fluorobenzonitrile] |
| 224 | 142 | C[C@@]1(c2cc(-c3cncc(C#N)c3)cs2)Cc2nc(C3CC3)ncc2C(=N)N1 [Example 35, 5-{5-[(7S)-2-cyclopropyl-5-imino-7-methyl-5,6,7,8-tetrahydropyrido[4,3-d]pyrimidin-7-yl]thiophen-3-yl}pyridine-3-carbonitrile] |
| 827 | 259 | C[C@@]1(c2cc(-c3cccc(C#N)c3)ccc2F)Cc2ncncc2C(=N)N1 [Example 11, 4′-fluoro-3′-[(7S)-5-imino-7-methyl-5,6,7,8-tetrahydropyrido[4,3-d]pyrimidin-7-yl]biphenyl-3-carbonitrile] |
| 10.4 | 4.2 | Cc1ncc2c(n1)C[C@@](C)(c1cc(NC(=O)c3ccc(Cl)cn3)ccc1F)NC2=N [Example 45, 5-chloro-N-{4-fluoro-3-[(7S)-5-imino-2,7-dimethyl-5,6,7,8-tetrahydropyrido[4,3-d]pyrimidin-7-yl]phenyl}pyridine-2-carboxamide] |
| 125 | 62.4 | Cc1ncc2c(n1)C[C@@](C)(c1sc(-c3cncc(C#N)c3)cc1Cl)NC2=N [Example 25, 5-{4-chloro-5-[(7S)-5-imino-2,7-dimethyl-5,6,7,8-tetrahydropyrido[4,3-d]pyrimidin-7-yl]thiophen-2-yl}pyridine-3-carbonitrile] |
| 11.1 | 37.3 | C[C@@]1(c2sc(-c3cccc(-c4nnco4)c3)cc2Cl)Cc2ncncc2C(=N)N1 [Example 15, (7S)-7-{3-chloro-5-[3-(1,3,4-oxadiazol-2-yl)phenyl]thiophen-2-yl}-7-methyl-7,8-dihydropyrido[4,3-d]pyrimidin-5(6H)-imine] |
| 16.5 | 21.6 | C[C@@]1(c2sc(-c3cc(F)cc(-c4nnco4)c3)cc2Cl)Cc2ncncc2C(=N)N1 [Example 17, (7S)-7-{3-chloro-5-[3-fluoro-5-(1,3,4-oxadiazol-2-yl)phenyl]thiophen-2-yl}-7-methyl-7,8-dihydropyrido[4,3-d]pyrimidin-5(6H)-imine] |
| 15.4 | 15.3 | COc1ccc(C(=O)Nc2ccc(F)c([C@]3(C)Cc4nc(C)ncc4C(=N)N3)c2)nc1 [Example 47, N-{4-fluoro-3-[(7S)-5-imino-2,7-dimethyl-5,6,7,8-tetrahydropyrido[4,3-d]pyrimidin-7-yl]phenyl}-5-methoxypyridine-2-carboxamide] |
| 58.2 | 23.1 | C[C@@]1(c2cc(-c3cccc(C#N)c3)cs2)Cc2nc(C(F)(F)F)ncc2C(=N)N1 [Example 40, 3-{5-[(7S)-5-imino-7-methyl-2-(trifluoromethyl)-5,6,7,8-tetrahydropyrido[4,3-d]pyrimidin-7-yl]thiophen-3-yl}benzonitrile] |
| 3040 | 549 | C[C@@]1(c2cc(-c3cccc(C(F)(F)F)c3)ccc2F)Cc2ncncc2C(=N)N1 [Example 6, (7S)-7-[4-fluoro-3′-(trifluoromethyl)biphenyl-3-yl]-7-methyl-7,8-dihydropyrido[4,3-d]pyrimidin-5(6H)-imine] |
| 199 | 53.5 | COc1cccc(-c2ccc(F)c([C@]3(C)Cc4ncncc4C(=N)N3)c2)c1 [Example 5, (7S)-7-(4-fluoro-3′-methoxybiphenyl-3-yl)-7-methyl-7,8-dihydro-pyrido[4,3-d]pyrimidin-5(6H)-imine] |
| 7.1 | 10.9 | Cc1ncc2c(n1)C[C@](c1cc(NC(=O)c3ccc(C#N)cn3)ccc1F)(C(F)F)NC2=N [Example 50, 5-cyano-N-{3-[(7S)-7-(difluoromethyl)-5-imino-2-methyl-5,6,7,8-tetrahydropyrido[4,3-d]pyrimidin-7-yl]-4-fluorophenyl}pyridine-2-carboxamide] |
| 108 | 20.2 | CC#Cc1cncc(-c2ccc(F)c([C@]3(C)Cc4ncncc4C(=N)N3)c2)c1 [Example 12, (7S)-7-[2-fluoro-5-(5-prop-1-yn-1-ylpyridin-3-yl)phenyl]-7-methyl-7,8-dihydropyrido[4,3-d]pyrimidin-5(6H)-imine] |
| 52.7 | 28 | Cc1ncc2c(n1)C[C@@](C)(c1sc(-c3cccc(C#N)c3)cc1Cl)NC2=N [Example 24, 3-{4-chloro-5-[(7S)-5-imino-2,7-dimethyl-5,6,7,8-tetrahydropyrido[4,3-d]pyrimidin-7-yl]thiophen-2-yl}benzonitrile] |
| 94.7 | 44.2 | C[C@@]1(c2sc(-c3cncc(C#N)c3)cc2Cl)Cc2nc(C3CC3)ncc2C(=N)N1 [Example 37, 5-{4-chloro-5-[(7S)-2-cyclopropyl-5-imino-7-methyl-5,6,7,8-tetrahydropyrido[4,3-d]pyrimidin-7-yl]thiophen-2-yl}pyridine-3-carbonitrile] |
| 33.3 | 118 | C[C@]1(c2sc(-c3cccc(-c4nnco4)c3)cc2Cl)NC(=N)c2cncnc2C1(F)F [Example 20, (7S)-7-{3-chloro-5-[3-(1,3,4-oxadiazol-2-yl)phenyl]thiophen-2-yl}-8,8-difluoro-7-methyl-7,8-dihydropyrido[4,3-d]pyrimidin-5(6H)-imine] |
| 36.4 | 16.7 | C[C@@]1(c2sc(-c3ccc(F)c(C#N)c3)cc2Cl)Cc2ncncc2C(=N)N1 [Example 16, 5-{4-chloro-5-[(7S)-5-imino-7-methyl-5,6,7,8-tetrahydropyrido[4,3-d]pyrimidin-7-yl]thiophen-2-yl}-2-fluorobenzonitrile] |
| 151 | 87.9 | Cc1ncc2c(n1)C[C@@](C)(c1cc(-c3cccc(C#N)c3)cs1)NC2=N [Example 23, 3-{5-[(7S)-5-imino-2,7-dimethyl-5,6,7,8-tetrahydropyrido[4,3-d]pyrimidin-7-yl]thiophen-3-yl}benzonitrile] |
